# According to patent publication US20250282827A1, “LIPIDATED POLYMYXIN ANALOGUES” (priority 2021, published 2025):
# Read-outs that look alike come from different tables or passages of the source. Positions of bridges follow the written chain, without caps; N, C: chain ends. Non-standard residues stand in square brackets, D forms with d. Residues, ends and D or L forms follow the SMILES beside them. *: point of attachment. Ethyl(2-propionyloxy) = CCC(=O)OCC*; Ethyl(2-OPiv) = CC(C)(C)C(=O)OCC*; Ethyl(2-OBz) = O=C(OCC*)c1ccccc1; Dab = NCC[C@H](N)C(=O)O
# Experiments:
# P. aeruginosa ATCC 27853 = type: cell-based, Pseudomonas aeruginosa
# Description: (§1) All 81 compounds prepared in Examples 2 and 3 underwent screening against a panel of Gram-negative bacterium to assess their ability to inhibit bacterial growth. […] The median value is presented.
# E. coli ATCC MS8345 = type: cell-based, Escherichia coli
# Description: as §1
# Expansion of the polymyxin macrocycle by substituting […]) offered little advantage in antimicrobial activity but was generally well tolerated although for A. baumanni and P. aeruginosa this was detrimental.
# [1] = test system: carbapenem-resistant Pseudomonas aeruginosa (CRPA); type: cell-based; conditions: carbapenem-resistant (CRPA)
# Description: (§2) Given the promising antimicrobial activity and low toxicity associated with compounds 29, 35 and to a lesser extent 38, these compounds were progressed to a further round of phenotypic antimicrobial susceptibility testing using a panel of clinically relevant multidrug resistant Gram-negative pathogens. This panel included isolates phenotypically characterised as carbapenem-resistant Enterobacteriacea (CRE), extended spectrum β-lactamase (ESBL) producing Enterobacteriacea, colistin-resistant E. coli, carbapenem-resistant Acinetobacter baumannii (CRAB) or carbapenem-resistant Pseudomonas aeruginosa (CRPA). These isolates were chosen because each was resistant to multiple different families of clinically used antibiotics making treatment options limited and importantly, each of these pathogen types are recognised as “Priority 1: CRITICAL” on the World Health Organization (WHO) priority pathogen list for R&D of new antibiotics. Antimicrobial activity against any of these pathogens would therefore be of clinical importance. […] However, we note that many of the compounds tested in Example 4 did show good activity against colistin-resistant E. coli.
# [2] = test system: carbapenem-resistant Enterobacteriacea (CRE); type: cell-based
# Description: as §2
# [3] = test system: carbapenem-resistant Acinetobacter baumannii (CRAB); type: cell-based; conditions: carbapenem-resistant (CRAB)
# Description: as §2
# K. pneumoniae ATCC 33495 = type: cell-based, Klebsiella pneumoniae
# Description: as §1
# [4] = test system: K. pneumoniae ATCC 700603; type: cell-based, Klebsiella pneumoniae
# Description: as §1
# [5] = test system: K. pneumoniae ATCC MS6671; type: cell-based, Klebsiella pneumoniae
# Description: as §1
# E. coli ATCC 25922 = type: cell-based, Escherichia coli
# Description: as §1
# [6] = test system: colistin-resistant E. coli; type: cell-based, Escherichia coli; conditions: colistin-resistant
# Description: as §2
# Vero cell line = experiment: Cellular toxicity against Vero cell line; type: cell-based
# Experimental: (§3) FIG. 6 is a graph showing cell survival as a function of the indicated compound concentration. Data are representative of triplicate experiments.
# (§4) To evaluate if the ClipPA modifications introduced any new toxicity, inhibitory concentrations against Vero and HaCaT cell lines were determined. […] The standard error for each measurement is shown.
# HaCaT cell line = experiment: Cellular toxicity against HaCaT cell line; type: cell-based
# Experimental: as §3, §4
# A. baumannii ATCC 19606 = type: cell-based, Acinetobacter baumannii
# Description: as §1
# [7] = test system: kidney organoids derived from human induced pluripotent stem cells; experiment: Nephrotoxicity on kidney organoids, renal tubule deterioration by bright field imaging; type: cell-based; conditions: scored after 48 h; note: key: 1 = unaffected; 2 = mild deterioration; 3 = severe deterioration; 4 = complete deterioration
# Experimental: Selected polymyxin analogues were evaluated for cytotoxicity in physiologically relevant human kidney tissue, using kidney organoids derived from human induced pluripotent stem cells (Soo et al. 2018). Monolipidated analogues 29, 31, 33, containing a propyl, decyl or phenyl lipid, dilapidated compounds, 35, 38, 39, containing a propyl, tert-butyl or phenyl, lipid, respectively and the N-capped, di-lipidated (phenyl) 49 were selected.
# The control compound polymyxin B and the seven ClipPA analogues were tested by adding a range of concentrations (based on Gallado-Godoy et al. 2016) to the organoids at day 12 of the protocol, shown previously to correspond to optimal maturity of the organoid tissues.
# Toxicity was scored after 48 h for signs of renal tubule deterioration visible by bright field imaging (not shown).
SMILES,MIC P. aeruginosa ATCC 27853 (P. aeruginosa ATCC 27853; ATCC 27853) [µg/mL],MIC E. coli ATCC MS8345 (E. coli ATCC MS8345; ATCC MS8345) [µg/mL],MIC [1] [µg/mL],"MIC ([2]; E. cloacae, IMP-4) [µg/mL]","MIC ([2]; E. coli, NDM-1) [µg/mL]","MIC ([2]; K. pneumoniae, KPC-2) [µg/mL]","MIC ([2]; K. pneumoniae, NDM-5) [µg/mL]",MIC [3] [µg/mL],MIC K. pneumoniae ATCC 33495 (K. pneumoniae ATCC 33495; ATCC 33495) [µg/mL],MIC K. pneumoniae ATCC 700603 ([4]; ATCC 700603) [µg/mL],MIC K. pneumoniae ATCC MS6671 ([5]; ATCC MS6671) [µg/mL],MIC E. coli ATCC 25922 (E. coli ATCC 25922; ATCC 25922) [µg/mL],MIC [6] [µg/mL],MIC A. baumannii ATCC 19606 (A. baumannii ATCC 19606; ATCC 19606) [µg/mL],other results
CCC(=O)OCCSC[C@H](N)C(=O)N[C@@H](CCN)C(=O)N[C@H](C(=O)N[C@@H](CCN)C(=O)N[C@H]1CCNC(=O)[C@H]([C@@H](C)O)NC(=O)[C@H](CCN)NC(=O)[C@H](CCN)NC(=O)[C@H](CC(C)C)NC(=O)[C@@H](Cc2ccccc2)NC(=O)[C@H](CCN)NC1=O)[C@@H](C)O [Compound 29] (H-C(Ethyl(2-propionyloxy))[Dab]T[Dab][Dab][Dab][dF]L[Dab][Dab]T; lactam 5-C),2,32,>32,2,2,2,2,4,0.125,0.5,>32,2,>32,2,IC50 Vero (Vero cell line): 2422 ± 38.98 µg/mL; amount required to cause inhibition (Vero cell line): > 500 µg/mL; fold less toxic towards Vero than Colistin or Polymyxin B (Vero cell line): ~2.5 fold; IC50 HaCaT (HaCaT cell line): 2534 ± 169.2 µg/mL; amount required to cause inhibition (HaCaT cell line): > 500 µg/mL; inhibitory effects against HaCaT compared with Colistin or Polymyxin B (HaCaT cell line): comparable
CCC(=O)OCCSC[C@@H]1NC(=O)[C@@H](Cc2ccccc2)NC(=O)[C@H](CCN)NC(=O)[C@@H](NC(=O)[C@H](CCN)NC(=O)[C@@H](NC(=O)[C@H](CCN)NC(=O)[C@@H](N)CSCCOC(=O)CC)[C@@H](C)O)CCNC(=O)[C@H]([C@@H](C)O)NC(=O)[C@H](CCN)NC(=O)[C@H](CCN)NC1=O [Compound 35] (H-C(Ethyl(2-propionyloxy))[Dab]T[Dab][Dab][Dab][dF]C(Ethyl(2-propionyloxy))[Dab][Dab]T; lactam 5-C),>32,>32,>32,2,2,4,4,8,1 to 2,1,>32,0.5,>32,32,
C[C@@H](O)[C@@H]1NC(=O)[C@H](CCN)NC(=O)[C@H](CCN)NC(=O)[C@H](CSCCOC(=O)C(C)(C)C)NC(=O)[C@@H](Cc2ccccc2)NC(=O)[C@H](CCN)NC(=O)[C@@H](NC(=O)[C@H](CCN)NC(=O)[C@@H](NC(=O)[C@H](CCN)NC(=O)[C@@H](N)CSCCOC(=O)C(C)(C)C)[C@@H](C)O)CCNC1=O [Compound 38] (H-C(Ethyl(2-OPiv))[Dab]T[Dab][Dab][Dab][dF]C(Ethyl(2-OPiv))[Dab][Dab]T; lactam 5-C),4,16,>32,2,2,2,2,2,0.5,0.5,>32,0.5,16,2,
C[C@@H](O)[C@@H]1NC(=O)[C@H](CCN)NC(=O)[C@H](CCN)NC(=O)[C@H](CSCCOC(=O)c2ccccc2)NC(=O)[C@@H](Cc2ccccc2)NC(=O)[C@H](CCN)NC(=O)[C@@H](NC(=O)[C@H](CCN)NC(=O)[C@@H](NC(=O)[C@H](CCN)NC(=O)[C@@H](N)CSCCOC(=O)c2ccccc2)[C@@H](C)O)CCNC1=O [Compound 39] (H-C(Ethyl(2-OBz))[Dab]T[Dab][Dab][Dab][dF]C(Ethyl(2-OBz))[Dab][Dab]T; lactam 5-C),,,,,,,,,,,,,,,"MIC P. aeruginosa ATCC 27853 (P. aeruginosa ATCC 27853; median of triplicate): 2 µg/mL; Score (nephrotoxicity on kidney organoids) ([7]; 100 μM): 1; Score (nephrotoxicity on kidney organoids) ([7]; 300 μM): 3; Score (nephrotoxicity on kidney organoids) ([7]; 1 mM): 4; MIC E. coli ATCC MS8345 (E. coli ATCC MS8345; colistin-resistant strain, median of triplicate): 4 µg/mL; MIC K. pneumoniae ATCC 33495 (K. pneumoniae ATCC 33495; median of triplicate): 0.5 µg/mL; MIC K. pneumoniae ATCC 700603 ([4]; median of triplicate): 0.5 µg/mL; MIC K. pneumoniae ATCC MS6671 ([5]; median of triplicate): >32 µg/mL; MIC E. coli ATCC 25922 (E. coli ATCC 25922; median of triplicate): 0.5 µg/mL; fold more toxic compared to compound 29 (Vero cell line; Vero cell line): ~5 fold; IC50 Vero (Vero cell line; Vero cell line, ± standard error): 521.0 ± 17.05 µg/mL; fold more toxic compared to compound 29 (HaCaT cell line; HaCaT cell line): ~5 fold; IC50 HaCaT (HaCaT cell line; HaCaT cell line, ± standard error): 657.7 ± 87.51 µg/mL; MIC A. baumannii ATCC 19606 (A. baumannii ATCC 19606; median of triplicate): 2 µg/mL"
